# PubChem BioAssay (NCI)
#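 Five concentrations, 48 hours, 96-well plates. TGI: total growth inhibition.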
# What was measured:
# Experiment in all cases: inhibition of tumour cell growth, NCI panel, 48 h
# COLO 205 colon = tested on: COLO 205 colon
# HCT-116 colon = tested on: HCT-116 colon
# HOP-62 NSCLC = tested on: HOP-62 NSCLC
# HT29 colon = tested on: HT29 colon
# OVCAR-5 ovarian = tested on: OVCAR-5 ovarian
# RXF 393 renal = tested on: RXF 393 renal
# SF-295 CNS = tested on: SF-295 CNS
# SK-MEL-28 melanoma = tested on: SK-MEL-28 melanoma
# SK-MEL-5 melanoma = tested on: SK-MEL-5 melanoma
# SK-OV-3 ovarian = tested on: SK-OV-3 ovarian
# SR leukemia = tested on: SR leukemia
# SW-620 colon = tested on: SW-620 colon
# T-47D breast = tested on: T-47D breast
# U251 CNS = tested on: U251 CNS
# UACC-257 melanoma = tested on: UACC-257 melanoma
# UACC-62 melanoma = tested on: UACC-62 melanoma
# A498 renal = tested on: A498 renal
# MDA-N = tested on: MDA-N
SMILES,TGI (COLO 205 colon) [µM],TGI (HCT-116 colon) [µM],TGI (HOP-62 NSCLC) [µM],TGI (HT29 colon) [µM],TGI (OVCAR-5 ovarian) [µM],TGI (RXF 393 renal) [µM],TGI (SF-295 CNS) [µM],TGI (SK-MEL-28 melanoma) [µM],TGI (SK-MEL-5 melanoma) [µM],TGI (SK-OV-3 ovarian) [µM],TGI (SR leukemia) [µM],TGI (SW-620 colon) [µM],TGI (T-47D breast) [µM],TGI (U251 CNS) [µM],TGI (UACC-257 melanoma) [µM],TGI (UACC-62 melanoma) [µM],TGI (A498 renal) [µM],TGI (MDA-N) [µM]
CCCCP(CCCC)(CCCC)=C(C(=O)OC)C(C(=O)OC)=C1SC(C(=O)OC)=C(C(=O)OC)S1,45.5,31.9,49.3,30.7,52.5,22.8,36.3,29.8,29.7,75.8,> 100,87,43.7,29.5,37.3,27.1,–,–
CC1(C)C2CCC1(CC(=O)O)C(Cl)C2 (configuration not stated),> 100,> 100,> 100,> 100,> 100,> 100,> 100,> 100,> 100,> 100,–,> 100,> 100,> 100,> 100,> 100,> 100,–
COc1cc2c(cc1O)C(C)Cc1cc3c(cc1N(C)CC2)OCO3 (configuration not stated),> 58.8,> 35.2,36.8,29.7,54.9,9.48,10.3,45.8,10,22.8,> 100,> 56.4,–,14.8,> 47.2,12,39.5,–
CC1=NN(C(=O)Cc2ccccc2)C(=O)/C1=C\c1ccco1,> 100,> 100,> 100,> 100,> 100,–,> 100,> 100,> 100,–,> 100,> 100,–,–,> 100,–,–,–
CCN(CC)c1nc(N(C)C)c2cc(OC)ccc2n1,28.2,> 100,> 100,> 100,> 100,> 100,> 100,> 100,34.2,–,76.9,> 100,–,> 100,81.3,> 100,> 100,> 100
COc1cc(C=O)c(-c2cc3c(cc2C=O)OCO3)c(OC)c1OC,> 290,131,> 290,186,> 290,154,219,> 290,> 290,> 290,> 290,> 290,–,> 290,> 290,> 290,–,–
CC[C@@]1(O)C(=O)OCc2c1cc1n(c2=O)Cc2c-1nc1ccccc1c2/C=N\NC(=O)C(C)N (some centres not stated),> 31.6,23.6,16,> 47.1,> 100,9.18,8.14,> 100,1.78,–,0.119,> 100,–,31.6,28.7,0.305,1.03,> 100
CCOC(=O)/C=C/c1ccccn1,> 100,> 100,> 100,> 100,> 100,–,> 100,> 100,> 100,> 100,> 100,> 100,–,> 100,> 100,> 100,> 100,–
CN1OC2OC(=O)OC2[C@H]1[C@H]1O[C@H](c2ccccc2)OC1(C)c1cc(OC(=O)c2ccccc2)ccc1OC(=O)c1ccccc1 (some centres not stated),> 50,> 50,> 50,> 50,> 50,> 50,–,> 50,> 50,> 50,> 50,> 50,–,> 50,> 50,–,–,–
CC(C)(C)NC1C2CCC(C)(C1O)C2(C)C (configuration not stated),> 100,> 100,> 100,> 100,> 100,> 100,> 100,> 100,> 100,> 100,> 100,> 100,> 100,> 100,> 100,12.5,5.19,–
O=C(Nc1c(Cl)cc([N+](=O)[O-])cc1Cl)/C(=N\Nc1cccc(Cl)c1)c1c(O)c2ccccc2oc1=O,> 100,> 100,> 100,> 100,> 100,> 100,> 100,> 100,> 100,> 100,> 100,> 100,–,–,> 100,> 100,91.4,–
Cc1cc(NCCCCCCNc2cc(C)nc3ccc(Cl)cc23)c2cc(Cl)ccc2n1,32.3,30.8,> 100,33.5,34.7,30.6,31.2,32,32.8,> 100,> 100,–,–,30.6,44.9,36,> 100,–
COc1cc(OC)nc(Nc2c(C#N)c3nc4ccccc4n3c3ccccc23)n1,> 100,> 100,35,> 100,> 100,99.2,53,> 100,> 100,> 100,–,> 100,> 100,> 100,> 100,> 100,–,> 100
CCNCCNC(=O)c1ccc(Br)cc1,–,–,–,> 100,> 100,> 100,–,> 100,> 100,> 100,> 100,> 100,–,> 100,–,> 100,> 100,–
O=C(CSc1nnc(-c2ccc(N=Cc3ccc(Cl)cc3)cc2)o1)Nc1cccc(Cl)c1,> 100,> 100,> 100,> 100,–,> 100,> 100,> 100,> 100,> 100,> 100,> 100,–,> 100,> 100,> 100,–,–
